ChEMBL document CHEMBL6153146, “Secondary Metabolites of the Lichen Lethariella cladonioides and Their Neuroprotective Potential” (J Nat Prod, 2025)
The source made the active and inactive calls. No cut-off for these calls is given here.

Tests used:
Acetylcholinesterase = Acetylcholinesterase (Homo sapiens, UniProt P22303); assay: Inhibition of AChe (unknown origin) incubated for 0.25 hrs by DTNB-reagent based Ellman's method
RAW264.7 [1] = assay: Anti-inflammatory activity in mouse RAW264.7 cells assessed as inhibition of LPS-induced NO production incubated for 36 hrs by Griess assay; type: functional, cell-based; conditions: for IC50: RAW264.7, 36 h
RAW264.7 [2] = assay: Anti-inflammatory activity in mouse RAW264.7 cells assessed as alleviation of LPS-induced IL-6 mRNA expression level at 12.5 to 50 uM by qRT-PCR analysis; type: functional, cell-based; conditions: dose 12.5-50 µM
RAW264.7 [3] = assay: Anti-inflammatory activity in mouse RAW264.7 cells assessed as alleviation of LPS-induced IL-1 beta mRNA expression level at 12.5 to 50 uM by qRT-PCR analysis; type: functional, cell-based; conditions: dose 12.5-50 µM
RAW264.7 [4] = assay: Anti-inflammatory activity in mouse RAW264.7 cells assessed as alleviation of LPS-induced TNF-alpha mRNA expression level at 12.5 to 50 uM by qRT-PCR analysis; type: functional, cell-based; conditions: dose 12.5-50 µM
RAW264.7 [5] = assay: Anti-inflammatory activity in mouse RAW264.7 cells assessed as alleviation of LPS-induced cox-2 mRNA expression level at 12.5 to 50 uM by qRT-PCR analysis; type: functional, cell-based; conditions: dose 12.5-50 µM
RAW264.7 [6] = assay: Anti-inflammatory activity in mouse RAW264.7 cells assessed as downregulation of the LPS-induced iNOS expression at 12.5 to 50 uM by qRT-PCR analysis; type: functional, cell-based; conditions: dose 12.5-50 µM
RAW264.7 [7] = assay: Anti-inflammatory activity in mouse RAW264.7 cells assessed as downregulation of the LPS-induced IL-10 mRNA expression at 12.5 to 50 uM by qRT-PCR analysis; type: functional, cell-based; conditions: dose 12.5-50 µM
RAW264.7 [8] = assay: Anti-inflammatory activity in mouse RAW264.7 cells assessed as alleviation of LPS-induced IL-6 mRNA expression level at 10 to 40 uM by qRT-PCR analysis; type: functional, cell-based; conditions: dose 10-40 µM
RAW264.7 [9] = assay: Anti-inflammatory activity in mouse RAW264.7 cells assessed as alleviation of LPS-induced IL-1 beta mRNA expression level at 10 to 40 uM by qRT-PCR analysis; type: functional, cell-based; conditions: dose 10-40 µM
RAW264.7 [10] = assay: Anti-inflammatory activity in mouse RAW264.7 cells assessed as alleviation of LPS-induced TNF-alpha mRNA expression level at 10 to 40 uM by qRT-PCR analysis; type: functional, cell-based; conditions: dose 10-40 µM
RAW264.7 [11] = assay: Anti-inflammatory activity in mouse RAW264.7 cells assessed as alleviation of LPS-induced COX-2 mRNA expression level at 10 to 40 uM by qRT-PCR analysis; type: functional, cell-based; conditions: dose 10-40 µM

Sequence of Acetylcholinesterase (P22303 whole entry): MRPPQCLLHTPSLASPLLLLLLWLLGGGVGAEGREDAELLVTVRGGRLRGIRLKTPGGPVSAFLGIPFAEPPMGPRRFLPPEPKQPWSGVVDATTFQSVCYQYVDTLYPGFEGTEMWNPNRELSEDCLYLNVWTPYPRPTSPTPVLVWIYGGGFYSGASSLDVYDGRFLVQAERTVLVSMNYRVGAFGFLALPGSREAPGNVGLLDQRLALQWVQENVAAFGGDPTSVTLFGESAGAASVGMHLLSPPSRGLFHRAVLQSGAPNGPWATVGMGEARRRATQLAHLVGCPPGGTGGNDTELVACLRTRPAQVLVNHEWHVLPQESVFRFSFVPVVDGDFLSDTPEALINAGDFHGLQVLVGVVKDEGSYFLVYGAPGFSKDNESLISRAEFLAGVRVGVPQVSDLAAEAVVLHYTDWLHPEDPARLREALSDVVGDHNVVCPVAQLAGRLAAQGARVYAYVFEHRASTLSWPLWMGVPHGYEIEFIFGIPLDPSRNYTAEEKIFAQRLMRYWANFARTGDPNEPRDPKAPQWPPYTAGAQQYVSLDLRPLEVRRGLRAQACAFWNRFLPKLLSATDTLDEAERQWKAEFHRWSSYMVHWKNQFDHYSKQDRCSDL

Compound | IC50 (Acetylcholinesterase) | Activity (RAW264.7 [1]) | further results
CC(=O)C1=C(O)C=C2Oc3c(C(C)=O)c(O)c(C)c(O)c3[C@@]2(C)C1=O [(+)-USNIC ACID] | 28 µM | inactive | –
COCc1c(O)c(Oc2c(C=O)c(O)cc(C)c2C(=O)OC)c2c(c1O)C(=O)O[C@H]2O | 7.1 µM | inactive | –
CCOC(=O)c1c(O)cc(O)c(Cc2c(O)cc(C)c(C(=O)OCC)c2O)c1C | 19 µM | inactive | –
Cc1cc(O)c(C)c(O)c1 | 25 µM | inactive | –
CCOC(=O)c1c(C)cc(O)c(Cc2c(C)c(C(=O)OC)c(O)c(C)c2O)c1O | – | – | IC50 (RAW264.7 [1]): 28 µM; Activity (RAW264.7 [2]): Active; Activity (RAW264.7 [3]): Active; Activity (RAW264.7 [4]): Active; Activity (RAW264.7 [5]): Active; Activity (RAW264.7 [6]): Active
OCc1cc(O)cc(O)c1 | 28 µM | inactive | –
CCOC(=O)c1c(O)cc(O)c(Cc2c(O)cc(C)c(C(=O)OC)c2O)c1C | 20 µM | – | IC50 (RAW264.7 [1]): 35 µM; Activity (RAW264.7 [7]): Active
COC(=O)c1c(C)cc(O)cc1O [METHYL ORSELLINATE] | 24 µM | inactive | –
COC(=O)c1c(C)cc(O)c(Cc2c(C)c(C(=O)OC)c(O)c(C)c2O)c1O | – | – | IC50 (RAW264.7 [1]): 20 µM; Activity (RAW264.7 [8]): Active; Activity (RAW264.7 [9]): Active; Activity (RAW264.7 [10]): Active; Activity (RAW264.7 [11]): Active
Cc1cc(O)cc(O)c1C(=O)O [ORSELLINIC ACID] | 26 µM | inactive | –
CCOC(=O)c1c(C)cc(OC(=O)c2c(C)cc(O)cc2O)cc1O | 15 µM | inactive | –
COC(=O)c1c(C)cc(O)c(Cc2c(O)cc(C)cc2O)c1O | 15 µM | inactive | –
Cc1cc(O)cc(OC(=O)c2c(C)cc(O)c(C=O)c2O)c1 | 15 µM | inactive | –
